This note sets out measurements from US7718781B2, “Hydroxypyridonate and hydroxypyrimidinone chelating agents” (The Regents of the University of California, priority 2001, dated 2010).

Where only a bound is given, the exact number is not on record here.

Experiment [1] is described as follows: Water proton relaxivity (longitudinal relaxation rate, 20 MHz). It is filed as physicochemical. As for the experimental part: The efficacy of a paramagnetic complex as a possible MRI contrast agent depends on its ability to catalyze the nuclear magnetic relaxation rate of solvent protons (Lauffer, R. B., Chem. Rev., 87, 901 (1987); Tweedle, M. F.; Kumar, K. In Magnetic Resonance Imaging (MRI) Contrast Agents; Clarke, M. I., Sadler, P. J., Eds.; Springer: Berlin, Germany, Vol. 2, p. 1 (1999); Koenig et al., Prog. NMR Spectrosc., 22:487 (1990)). This property, which is measured in terms in relaxivity, r1p, is defined as the enhancement of the water proton longitudinal relaxation rate induced by a 1 mML^−1 solution of the paramagnetic compound at a given temperature and magnetic field strength (Aime et al., Chem. Soc. Rev., 27:19 (1998)).
In an exemplary assay, the longitudinal water proton relaxation rate at 20 MHz are measured (typically with a NMR spectrometer operating at 0.5 T) with a reproducibility of the T1 data to ±0.5%. Equipment for the control of temperature (with an accuracy of ±0.1° C.) during these measurements are employed.
Water proton relaxation measurements were carried out at 20 MHz with a Stelar Spinmaster Spectrometer (Mede, Pv, Italy) on 0.5-2 mM solutions of the Gd(III) complex. Spin-lattice relaxation times T1 were measured by the standard inversion recovery method with typical 90° pulse width of […], 16 experiments of 4 scans. The reproducibility of the data is ±1%. The temperature was controlled by a Stelar VTC-91 air-flow heater equipped with copper-constantan thermocouple (uncertainty ±0.1° C). The 1/T1 nuclear magnetic relaxation dispersion (NMRD) profiles of water protons were measured from 0.00024 to 1.2 T (corresponding to the range 0.01-50 MHz of proton Larmor frequencies) at 15, 25 and 39° C. using 1.5 mM solutions of the complex on the field-cycling Koenig-Brown relaxometer of the University of Torino (Italy). The temperature was controlled by circulating freon from an external bath and measured by a thermometer inserted into the freon close to the sample. The reproducibilities of the measured T1 values were estimated to be ±2%. […]

A short description of experiment [2]: Variable temperature 17O NMR of water transverse relaxation rate (water exchange, q). It is filed as physicochemical. How it is done:
The mean residence water lifetime, τm, is generally determined by measuring the transverse ^17O NMR relaxation rate (R2p) at various temperatures. The variable-temperature ^17O NMR measurement is performed using spectrometers which operate at various magnetic field strengths (2.1 and 9.4 T are typically used) equipped with a 5 mm probe. A D2O external lock and solutions containing 2.6% of the ^17O isotope are used. The observed transverse relaxation rates are calculated from the signal width at half-height. […]
A variable temperature ^17O NMR study of the transverse relaxation rate of H2^17O (R2p) of Gd-TREN-1-Me-3,2-HOPO-TAM, Gd-TREN-1-Me-3,2-HOPO-TAM-PEG-2000 and Gd-TREN-1-Me-3,2-HOPO-TAM-PEG-5000 at 2.1 T was carried out. Analysis of the profiles also allows the number of coordinated water molecules, q to be evaluated. […]
The value of τm, was independently obtained by a variable temperature (VT) ^17O NMR measurement of the water nuclear transverse relaxation rate (R2). The data were measured at 2.1 T (90 MHz for the proton and 12 MHz for 170) and pH≈7. The curve was analyzed in terms of the well established equations of Swift-Connick, rearranged in a form suitable for Gd. […]
Variable-temperature ^17O NMR measurements were recorded on a JEOL EX-400 (9.4 T) spectrometer, equipped with a 5 mm probe, by using D20 for external lock of the magnetic field. […]

Experiment [3] concerns the target human serum albumin (HSA) (Homo sapiens, UniProt P02768). The experiment in a line: Binding to HSA by proton relaxation enhancement (PRE) method. An excerpt: Biomolecule affinity measurements are generally measured by art-recognized methods. For example, the non-covalent interaction between HSA and the metal complexes containing hydrophobic groups have been thoroughly investigated using the well-established proton relaxation enhancement (PRE) method (Caravan, P. E. et al., Chem. Rev. 1999, 99, 2293) that allows both the binding parameters (Ka) and the relaxivity enhancement of the (Metal complex)-HSA adduct to be determined. In this method, the water proton relaxation rates of solutions containing the metal complex and increasing concentrations of the serum protein are measured. […]
The longitudinal relaxation rate (R1) of water protons in a […] solution of Gd-TREN-1-Me-3,2-HOPO-TAM-PEG-5000 was measured with increasing concentrations of HSA (FIG. 19) at 20 MHz and 25° C. […]
An objective of synthesizing the Bn and MOB chelates was to investigate their interaction with HSA. The non-covalent interaction between HSA and the Gd complexes was investigated using the well-established proton relaxation enhancement (PRE) method that allows both the binding parameters (KA) and the relaxivity enhancement of the (Gd^3+ complex)-HSA adduct to be determined. In this method, the water proton longitudinal relaxation rates (R1) of solutions containing the Gd complex and increasing concentrations of the serum protein are measured.

Sequence of human serum albumin (HSA) (P02768 25-609): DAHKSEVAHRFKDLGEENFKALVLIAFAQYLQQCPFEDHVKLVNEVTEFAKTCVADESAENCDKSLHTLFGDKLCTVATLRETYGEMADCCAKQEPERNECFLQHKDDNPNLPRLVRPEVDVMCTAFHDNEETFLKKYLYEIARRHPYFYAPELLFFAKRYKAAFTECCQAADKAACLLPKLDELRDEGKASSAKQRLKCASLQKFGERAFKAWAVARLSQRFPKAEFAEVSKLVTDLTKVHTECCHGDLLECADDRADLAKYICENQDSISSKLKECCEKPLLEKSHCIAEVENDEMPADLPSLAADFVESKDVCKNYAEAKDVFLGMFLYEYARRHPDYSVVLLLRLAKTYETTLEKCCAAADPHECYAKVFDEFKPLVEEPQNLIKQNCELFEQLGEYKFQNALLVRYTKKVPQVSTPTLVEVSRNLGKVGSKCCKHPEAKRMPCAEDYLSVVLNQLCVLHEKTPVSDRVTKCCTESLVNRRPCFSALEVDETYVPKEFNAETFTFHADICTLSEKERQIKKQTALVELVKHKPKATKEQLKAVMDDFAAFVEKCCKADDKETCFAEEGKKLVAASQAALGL

As to `O=C([O-])CN(CCN(CC(=O)[O-])CC(=O)O)CCN(CC(=O)[O-])CC(=O)O.[Gd+3]` [Gd-DTPA], in experiment [1], the “r1p/mM^−1s^−1 (20 MHz)” value amounted to 4.3 mM⁻¹ s⁻¹. The compound further showed a τM/ns in experiment [2] of 303 ns. Besides, the “KA (HSA)/M^−1” value in experiment [3] (HSA) was less than 100 M⁻¹. Also, in experiment [3] (relaxivity of HSA-bound complex), the “r1p^b/mM^−1s^−1 (HSA)” value came to 4.3 mM⁻¹ s⁻¹.
